According to patent US10005767B2, “Compositions and methods for inhibition of the JAK pathway” (Rigel Pharmaceuticals, Inc., priority 2009, dated 2018):
Counter-ions that a name gives are not always drawn.

test system: human primary T-cells, IL-2 stimulated proliferation (JAK-1 and JAK-3 dependent; reported as JAK3 activity); experiment: Human primary T-cell proliferation stimulated by IL-2 (Example 3); assay type: cell-based; conditions: Homo sapiens, T-cell, tested under conditions described in Example 3 (IL-2 stimulated human primary T-cell proliferation); read-out: ability to inhibit JAK3 activity, IC50 range (Table V)
Outline: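 Peripheral-blood human T-cells pre-activated via TCR/CD28, IL-2-starved overnight, then cultured 72 h at 37 °C with compound in Yssel's medium containing IL-2 (80 U/mL in cell suspension). Proliferation read as viable-cell ATP by CellTiter-Glo luminescence; reduction versus control taken as JAK pathway inhibition.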

Compound | IC50
COc1cc(Nc2ncc(C)c(Nc3ccc4oc(=O)[nH]c4c3)n2)ccc1C(=O)NC1CC1 [Compound I-220, N-cyclopropyl-2-methoxy-4-(5-methyl-4-(2-oxo-2,3-dihydrobenzo[d]oxazol-5-ylamino)pyrimidin-2-ylamino)benzamide] | < 500 nM
Cc1cnc(Nc2cncc(Br)c2)nc1Nc1ccc2oc(=O)[nH]c2c1 [II-77, 5-(2-(5-bromopyridin-3-ylamino)-5-methylpyrimidin-4-ylamino)benzo[d]oxazol-2(3H)-one] | 500 to 5000 nM
Cc1cnc(Nc2ccc(-c3cccnc3)c(F)c2)nc1Nc1ccc2oc(=O)[nH]c2c1 [Compound I-505, 5-(2-(3-fluoro-4-(pyridin-3-yl)phenylamino)-5-methylpyrimidin-4-ylamino)benzo[d]oxazol-2(3H)-one trifluoroacetic acid salt] | > 10000 nM
Cc1cnc(Nc2cc(C(=O)NC3CCC3)cc(C(F)(F)F)c2)nc1Nc1ccc2oc(=O)[nH]c2c1 [Compound I-469, N-Cyclobutyl-3-[5-methyl-4-(2-oxo-2,3-dihydro-benzooxazol-5-ylamino)-pyrimidin-2-ylamino]-5-trifluoromethyl-benzamide] | < 500 nM
Cc1cnc(Nc2ccc(N3CC4(C)CN(C)CC(C)(C3)C4)nc2)nc1Nc1ccc2oc(=O)[nH]c2c1 [II-117, 5-methyl-N4-(2-oxo-2,3-dihydro-1,3-benzoxazol-5-yl)-N2-[2-(1,3,5-trimethyl-3,7-diazabicyclo[3.3.1]nonan-7-yl)pyridin-5-yl]-2,4-pyrimidinediamine] | < 500 nM
Cc1cc(C)c(Nc2ncc(C)c(Nc3ccc4oc(=O)[nH]c4c3)n2)c(C)c1 [IV-61, 5-[5-Methyl-2-(2,4,6-trimethyl-phenylamino)-pyrimidin-4-ylamino]-3H-benzooxazol-2-one] | > 10000 nM
CCNC(=O)NC1CCN(c2ccc(Nc3ncc(C)c(Nc4ccc5oc(=O)[nH]c5c4)n3)cn2)C1 (stereo not shown) [II-96, 1-ethyl-3-(1-(5-(5-methyl-4-(2-oxo-2,3-dihydrobenzo[d]oxazol-5-ylamino)pyrimidin-2-ylamino)pyridin-2-yl)pyrrolidin-3-yl)urea] | < 500 nM
O=c1[nH]c2cc(Nc3nc(Nc4cccc(S(=O)(=O)N5CCOCC5)c4)ncc3F)ccc2o1 [Compound I-31, N4-(benzo[d]oxazol-2(3H)-on-5-yl)-N2-(3-(morpholinosulfonyl)phenyl)-5-fluoropyrimidine-2,4-diamine] | < 500 nM
Cc1cnc(Nc2cccc(C(C)N3CCOCC3)c2)nc1Nc1ccc2oc(=O)[nH]c2c1 (stereo not shown) [Compound I-217, 5-(5-methyl-2-(3-(1-morpholinoethyl)phenylamino)pyrimidin-4-ylamino)benzo[d]oxazol-2(3H)-one] | < 500 nM
Cc1cnc(Nc2ccc(OCCN3CCOCC3)c(Cl)c2)nc1Nc1ccc2oc(=O)[nH]c2c1 [Compound I-191, 5-{2-[3-Chloro-4-(2-morpholin-4-yl-ethoxy)-phenylamino]-5-methyl-pyrimidin-4-ylamino}-3H-benzooxazol-2-one] | < 500 nM
Cc1cnc(Nc2cnc(N3CCN(C)CC3)c(C(F)(F)F)c2)nc1Nc1ccc2oc(=O)[nH]c2c1 [II-39, N4-(benzo[d]oxazolin-2(3H)-on-5-yl)-N2-[3-trifluoromethyl-2-(4-methylpiperazin-1-yl)pyridin-5-yl]-5-methylpyrimidine-2,4-diamine] | < 500 nM
Cc1cnc(Nc2ccc(N3CCNC(C)C3)nc2)nc1Nc1ccc2oc(=O)[nH]c2c1 (stereo not shown) [II-12, N4-(benzo[d]oxazol-2(3H)-on-5-yl)-N2-(6-(3-methylpiperazin-1-yl)pyridin-3-yl)-5-methylpyrimidine-2,4-diamine] | < 500 nM
Cc1cnc(Nc2ccc(C(N)=O)c(N3CCC(C)CC3)c2)nc1Nc1ccc2oc(=O)[nH]c2c1 [Compound I-156, 4-[5-Methyl-4-(2-oxo-2,3-dihydro-benzooxazol-5-ylamino)-pyrimidin-2-ylamino]-2-(4-methyl-piperidin-1-yl)-benzamide] | < 500 nM
Cc1cnc(Nc2ccc(C(F)(F)F)cc2)nc1Nc1ccc2oc(=O)[nH]c2c1 [Compound I-160, 5-[5-Methyl-2-(4-trifluoromethyl-phenylamino)-pyrimidin-4-ylamino]-3H-benzooxazol-2-one] | < 500 nM
Cc1cnc(Nc2ccc(-c3ccc(OCCCN(C)C)nc3)cc2)nc1Nc1ccc2oc(=O)[nH]c2c1 [Compound I-511, 5-(2-(4-(6-(3-(dimethylamino)propoxy)pyridin-3-yl)phenylamino)-5-methylpyrimidin-4-ylamino)benzo[d]oxazol-2(3H)-one trifluoroacetate salt] | < 500 nM
COc1c(F)ccc(Nc2ncc(C)c(Nc3cc(F)c4oc(=O)[nH]c4c3)n2)c1F [Compound I-508, 5-(2-(2,4-difluoro-3-methoxyphenylamino)-5-methylpyrimidin-4-ylamino)-7-fluorobenzo[d]oxazol-2(3H)-one] | < 500 nM
Cc1cnc(Nc2ccc(NS(C)(=O)=O)cc2)nc1Nc1ccc2[nH]c(=O)[nH]c2c1 [Compound I-50, N2-(4-(methylsulfonylamino)phenyl)-N4-(1H-benzo[d]imidazol-2(3H)-on-5-yl)-5-methylpyrimidine-2,4-diamine] | < 500 nM

same assay, conditions: tested under conditions described in Example 3 (IL-2 stimulated human primary T-cell proliferation); read-out: ability to inhibit JAK3 activity, IC50 range (Table V)

Compound | IC50
Cc1cnc(Nc2cccc(S(C)(=O)=O)c2)nc1Nc1ccc2oc(=O)n(C(C)C)c2c1 [Compound I-9, N4-(3-isopropylbenzo[d]oxazol-2(3H)-on-5-yl)-N2-((3-methylsulfonyl)phenyl)-5-methylpyrimidine-2,4-diamine] | < 500 nM
Cc1cnc(Nc2ccc(NS(C)(=O)=O)cc2)nc1Nc1ccc2c(c1)oc(=O)n2C [Compound I-74, N2-((4-methylsulfonylamino)phenyl)-N4-(3-methyl-2-oxo-2,3-dihydrobenzo[d]oxazol-6-yl)-5-methylpyrimidine-2,4-diamine] | < 500 nM
CCN1CCN(c2cc(Nc3ncc(C)c(Nc4ccc5oc(=O)[nH]c5c4)n3)ccc2Cl)CC1 [Compound I-283, N2-[4-chloro-3-(4-ethylpiperazino)]phenyl-5-methyl-N4-(2-oxo-2,3-dihydro-1,3-benzoxazol-5-yl)-2,4-pyrimidinediamine] | < 500 nM
Cc1ccc(Nc2ncc(C)c(Nc3ccc4oc(=O)[nH]c4c3)n2)cc1OC(F)F [Compound I-390, N2-(3-difluoromethoxy-4-methyl)phenyl-5-methyl-N4-(2-oxo-2,3-dihydro-1,3-benzoxazol-5-yl)-2,4-pyrimidinediamine] | < 500 nM
N4-(benzo[d]oxazol-2(3H)-on-5-yl)-N2-(2-(bicyclo[2.2.1]heptan-2-ylmethyl)isoindolin-5-yl)-5-methylpyrimidine-2,4-diamine [III-11] | < 500 nM
O=c1[nH]c2cc(Nc3nc(Nc4cccc(N5CCOCC5)c4)ncc3F)ccc2o1 [Compound I-47, N4-(benzo[d]oxazol-2(3H)-on-5-yl)-N2-((3-morpholinyl)phenyl)-5-fluoropyrimidine-2,4-diamine] | < 500 nM
CCOC(=O)N1CCN(c2cccc(Nc3ncc(C)c(Nc4ccc5oc(=O)[nH]c5c4)n3)c2)CC1 [Compound I-346, N2-[3-(4-ethoxycarbonyl)piperazino]phenyl-5-methyl-N4-(2-oxo-2,3-dihydro-1,3-benzoxazol-5-yl)-2,4-pyrimidinediamine] | < 500 nM
Cc1cc(Nc2ncc(C)c(Nc3ccc4oc(=O)[nH]c4c3)n2)ccc1F [Compound I-362, N2-(4-fluoro-3-methyl)phenyl-5-methyl-N4-(2-oxo-2,3-dihydro-1,3-benzoxazol-5-yl)-2,4-pyrimidinediamine] | < 500 nM
